For assay [1], the system named is E. coli SK2. Briefly: MIC, micro broth dilution. The class given is cell-based, Escherichia coli. To be noted: alone. The protocol: (§1) An assay was made using a minimum inhibitory concentration (MIC) and minimum bactericidal concentration (MBC) and minimum fungicidal concentration (MFC) determination. The MIC was determined by the micro broth dilution method in 96-well plates. Serial two-fold dilutions of tetrasodium EDTA (from 2% to 0.015%), ethanol (from 50% to 0.1%) and chlorhexidine HCl (from 100 μg/mL to 0.025 μg/mL) were prepared in MH broth with a final volume of 90 μL per well. A 10 μL containing 1×10^5 bacterial cells or 2×10^3 fungal cells were added to each well. The inoculated plates were covered with a lid, sealed with Parafilm, and incubated for 24 h at 37° C. with slight rocking on a tilting platform shaker. After incubation, the optical density at 600 nm (OD 600) of the cultures in each well was measured using an xMark™ Microplate Absorbance Spectrophotometer (Bio-Rad). […] MBCs and MFCs were determined by transferring 100 μL from each well with no apparent growth onto appropriate agar plates, followed by incubation for 24 h at 37° C.
A general note: In broth dilution the organism is exposed to a series of concentrations in liquid medium.

The test system of assay [2] is C. albicans ON47. In words: MIC, micro broth dilution. Format: cell-based, Candida albicans. The conditions noted are these: alone. The procedure: as §1
Assay [3] has as its system E. coli SK2. In words: Checkerboard titration, FICI. Format: cell-based, Escherichia coli. The conditions noted are these: for concentration in combination: EDTA + ethanol. The procedure: (§2) A fourth composition and solution included tetrasodium EDTA with ethanol or chlorhexidine HCl. This fourth composition and solution were created using checkerboard titration methods using micro broth dilution in 96-well microtiter plates. The concentrations of antimicrobials used were based on previously determined MIC values. Briefly, 200 μL, of two-fold dilutions of tetrasodium EDTA and ethanol or chlorhexidine HCl were prepared in MH or MH II broth with standardized cell suspension. […] Microtiter plates were incubated at 37° C. for 24 h, and the results were analyzed. Each test was performed in duplicate and included a growth control without adding any antimicrobials.

The subject of a further assay is Candida albicans SK4b. Briefly: MBC/MFC determination. Format: cell-based. To be noted: alone. The protocol: as §1
Another assay deals with Escherichia coli ON29. Briefly: MBC/MFC determination. Format: cell-based. To be noted: alone. The procedure:
as §1

The subject of the next assay is Proteus mirabilis ON153. In words: MBC/MFC determination. The conditions noted are these: alone. The class given is cell-based. The procedure:
as §1

The subject of assay [4] is Pseudomonas aeruginosa SK1. Briefly: MBC/MFC determination. The class given is cell-based. To be noted: alone. The protocol:
as §1

Another assay has as its system Serratia marcescens SK2. In words: MBC/MFC determination. The class given is cell-based. The conditions noted are these: alone. The protocol:
as §1

The subject of assay [5] is Staphylococcus aureus ON89. In words: MBC/MFC determination. Format: cell-based. The conditions noted are these: alone. The protocol: as §1
Assay [6] concerns Staphylococcus epidermidis ON170. In words: MBC/MFC determination. Format: cell-based. The conditions noted are these: alone. The procedure: as §1
Assay [7] has as its system Stenotrophomonas maltophilia ON17. In words: MBC/MFC determination. Format: cell-based. To be noted: alone. The protocol: as §1
Assay [8] concerns E. coli SK2. In words: MBC/MFC determination. Format: cell-based, Escherichia coli. The conditions noted are these: alone. The procedure: as §1
Assay [9] concerns MRSA ON184. Briefly: Checkerboard, FMCI. Format: cell-based, S. aureus. The conditions noted are these: for microbicidal concentration in combination: EDTA + ethanol. The procedure: as §1, §2
Assay [10] has as its system E. coli SK2. Briefly: Checkerboard, FMCI. The class given is cell-based, Escherichia coli. To be noted: for microbicidal concentration in combination: EDTA + ethanol. The protocol: as §1, §2
Assay [11] deals with MRSA ON184. In words: MBEC assay, 48-h biofilm, 24 h exposure. Format: cell-based, S. aureus. The procedure: (§3) A biofilm cultivation cell composition was provided. This fifth composition was created using an MBEC Assay® biofilm inoculator, consisting of a polystyrene lid with 96 downward-protruding pegs and a corresponding base used to grow biofilms. A standardized inoculum was diluted in an appropriate biofilm growth medium to achieve a viable cell count of 1.5×10^6 CFU/mL of bacterial cells or 5×10^5 CFU/mL of fungal cells. Then, 150 μL of this inoculum was transferred into each appropriate well, and the peg lids were inserted into the microtiter plates. The plates were sealed with Parafilm and were incubated at optimum temperature for 48 h with slight rocking for bacteria and shaking at 200 rpm for fungal strains. After incubation, the peg lid was removed from the base and rinsed twice with sterile phosphate-buffered saline (PBS) for 2 min to remove loosely attached non-sessile cells. Before the antimicrobial challenge, the pegs in column 1 (n=8) were considered the biofilm growth control; these pegs were removed from the lids, placed into 200 μL of recovery medium, and analyzed for starting biofilm cell numbers as described below. The rinsed pegs were placed into new 96-well plates containing two-fold dilutions of antimicrobials such as tetrasodium EDTA (4%-0.0125%), ethanol (100%-0.2%), and chlorhexidine HCl (100 μg/mL-0.4 μg/mL) in 200 μL of suitable biofilm growth medium per well and incubated at optimum temperature for 24 h. After the antimicrobial challenge, the pegs were rinsed twice with sterile PBS for 2 min and placed into a new 96-well plate containing 200 μL of recovery medium. The recovery plates were sealed with Parafilm, and biofilm cells were dislodged from the pegs by sonication for 30 min with a Branson 3510 bath sonicator. The biofilm cells in the recovery medium were serially diluted, and a drop dilution assay was performed to enumerate the viable cells. MBEC values were determined as the minimum concentration of antimicrobials that yielded a viable cell count at or lower than the 125 CFU/mL detection limit.

The subject of assay [12] is C. albicans ON47. In words: MBEC assay, 48-h biofilm, 24 h exposure. Format: cell-based, Candida albicans. The protocol: as §3
In assay [13] the test system is Staphylococcus aureus ON89. Briefly: FBEC index, checkerboard on biofilms. The class given is cell-based. To be noted: for biofilm eradication concentration in combination (FBEC): EDTA + ethanol.
Description: (§4) In step (4), microtiter plates are incubated at 37° C. for 24 h. then (6), after incubation, the bacterial and fungal cells were dislodged from the pegs into the recovery medium described above.
(§5) Three 10-μL aliquots, for a total of 30 μL from each well of recovery medium, were spotted on MH agar plates and incubated for 24 h at 37° C. […] The FBEC determination is a modification of the FICI.
A further assay deals with Escherichia coli SK2. Briefly: FBEC index, checkerboard on biofilms. The class given is cell-based. To be noted: for biofilm eradication concentration in combination (FBEC): EDTA + ethanol.
The test system of assay [14] is 48-h-old biofilms of all of the test organisms. Briefly: Rapid biofilm eradication, 2-h exposure. Format: cell-based. The conditions noted are these: two h of exposure; preformed biofilms. The procedure:
Determining rapid biofilm eradication by tetrasodium EDTA, ethanol, and chlorhexidine HCl alone and in combination was performed. After biofilm formation, control pegs (n=6) were removed and analyzed to determine the starting biofilm cell numbers via the drop dilution method. The 48-h old biofilms on the pegs were exposed to different concentrations of test antimicrobials, dissolved in an appropriate growth medium, for two h to evaluate their efficacy alone and in combination. Antimicrobial solutions tested against each organism included each agent alone at the MBEC, double combinations at the FBEC, and triple combinations ranging from 5 to 20% ethanol, 2.5-5 μg/mL chlorhexidine HCl and 1-3% tetrasodium EDTA. Following treatment, pegs were washed twice with sterile PBS, and the biofilm cells were dislodged into recovery medium and enumerated as described above.
The method for rapid biofilm eradication ability of test antimicrobials alone and in combination against 48-h-old biofilms within two h exposure time included (1) choosing different concentrations of test antimicrobials to assess their potency in eradicating preformed biofilms of study organisms within two h. Then (2) the quantitative recovery from biofilms following exposure to the antimicrobial solutions for bacterial strains (FIGS. 9A-9B) and fungal strains (FIG. 5) was evaluated.

Where a name gives a salt, the structure may show the parent alone. Read-outs that look alike come from different tables or passages of the source.

Description for Escherichia coli SK2: as §4, §5

For the molecule `[H]/N=C(\N/C(=N/[H])NCCCCCCNC(=N)NC(=N)Nc1ccc(Cl)cc1)Nc1ccc(Cl)cc1` [Chlorhexidine HCl, 1,6-bis(4′-chlorophenylbiguanide) hexane], the MIC with E. coli SK2 [1] (Escherichia coli, read-out: MIC) worked out at 0.4 µg/mL; with C. albicans ON47 [2] (Candida albicans, read-out: MIC), 1.6 µg/mL. The “Chlorhexidine HCl concentration in combination” value in the assay on E. coli SK2 [3] (EDTA + chlorhexidine HCl) amounted to 0.1 µg/mL. The MBC/MFC came to 3.125 µg/mL in the assay with Candida albicans SK4b; 0.8 µg/mL in the assay with Escherichia coli ON29; 50 µg/mL in the assay on Proteus mirabilis ON153; 3.125 µg/mL in assay [4]; 25 µg/mL in the assay with Serratia marcescens SK2; 0.8 µg/mL in assay [5]. In addition, the MBC/MFC came to 0.8 µg/mL in [6], 3.125 µg/mL in [7] and 0.8 µg/mL in the assay on E. coli SK2 [8]. Further, the figures for the “Chlorhexidine HCl microbicidal concentration in combination” value in the assay with MRSA ON184 [9] (EDTA + chlorhexidine HCl) and in the assay on E. coli SK2 [10] (EDTA + chlorhexidine HCl) were 0.4 µg/mL and 0.2 µg/mL, respectively. Also, the results for the MBEC in the assay with MRSA ON184 [11] and in the assay with C. albicans ON47 [12] were 50 µg/mL and 25 µg/mL, respectively. Also, the “Chlorhexidine HCl biofilm eradication concentration in combination (FBEC)” value (in assay [13] (EDTA + chlorhexidine HCl); in the assay on Escherichia coli SK2 (EDTA + chlorhexidine HCl)) was 3.125 µg/mL throughout. Also, in assay [14], the “biofilm eradication at the MBEC alone” value is listed as “failed to eradicate”.
With `O=C([O-])CN(CCN(CC(=O)[O-])CC(=O)[O-])CC(=O)[O-].[Na+].[Na+].[Na+].[Na+]` [EDTA, tetrasodium EDTA], the MIC against E. coli SK2 [1] stood at 0.5 % w/v; against C. albicans ON47 [2], 1 % w/v. Moreover, the “EDTA concentration in combination” value in the assay on E. coli SK2 [3] (EDTA + chlorhexidine HCl) amounted to 0.008 % w/v. Further, in the assay on E. coli SK2 [3], the concentration in combination stood at 0.015 % w/v. Besides, the MBC/MFC came to 1 % w/v in the assay on Candida albicans SK4b; 1 % w/v with Escherichia coli ON29; 2 % w/v in the assay on Proteus mirabilis ON153; 1 % w/v in [4]; 2 % w/v with Serratia marcescens SK2; 1 % w/v in assay [5]. Besides, the MBC/MFC in assay [6] came out at 0.5 % w/v; in assay [7], 1 % w/v; in the assay with E. coli SK2 [8], 0.5 % w/v. Further, the figures for the “EDTA microbicidal concentration in combination” value in the assay on MRSA ON184 [9] (EDTA + chlorhexidine HCl) and in the assay with E. coli SK2 [10] (EDTA + chlorhexidine HCl) were 0.125 % w/v and 0.015 % w/v, respectively. Further, the “microbicidal concentration in combination” value in the assay with MRSA ON184 [9] came to 0.031 % w/v; with E. coli SK2 [10] it was 0.25 % w/v. Also, the values for the MBEC with MRSA ON184 [11] and in the assay with C. albicans ON47 [12] were 2 % w/v and 1 % w/v, respectively. In addition, the “EDTA biofilm eradication concentration in combination (FBEC)” value in assay [13] (EDTA + chlorhexidine HCl) is 0.125 % w/v; with Escherichia coli SK2 (EDTA + chlorhexidine HCl), 0.031 % w/v. Also, the entries for the “biofilm eradication concentration in combination (FBEC)” value (in assay [13]; with Escherichia coli SK2) were 0.063 % w/v and 0.125 % w/v, respectively. Besides, the “biofilm eradication at the MBEC alone” value in assay [14] was “failed to eradicate”.
For the molecule `CCO` [Ethanol, ethanol], the MIC against E. coli SK2 [1] was determined as 12.5 % w/v; in the assay with C. albicans ON47 [2] it was 6.25 % w/v. Besides, in the assay on E. coli SK2 [3], the concentration in combination is on record as 6.25 % w/v. Also, the MBC/MFC is 6.25 % w/v in the assay with Candida albicans SK4b; 25 % w/v against Escherichia coli ON29; 12.5 % w/v in the assay with Proteus mirabilis ON153; 12.5 % w/v in assay [4]; 12.5 % w/v in the assay with Serratia marcescens SK2; 25 % w/v in assay [5]. The MBC/MFC in assay [6] is 6.25 % w/v; in assay [7], 6.25 % w/v; against E. coli SK2 [8], 25 % w/v. For the same molecule, the entries for the “microbicidal concentration in combination” value with MRSA ON184 [9] and in the assay on E. coli SK2 [10] were 3.125 % w/v and 6.25 % w/v, respectively. The MBEC with MRSA ON184 [11] and in the assay with C. albicans ON47 [12] was 12.5 % w/v in each case. Also, the “biofilm eradication concentration in combination (FBEC)” value in assay [13] was 0.8 % w/v; in the assay with Escherichia coli SK2, 1.6 % w/v. Moreover, the “biofilm eradication at the MBEC alone” value in assay [14] was “failed to eradicate”.

These data come from US20230263757A1, “DISINFECTING WIPE KIT FOR CENTRAL VENOUS ACCESS DEVICES” (SterileCare Inc., priority 2022, published 2023).
